US20040147562A1, “Methods of treating conditions associated with an EDG-1 receptor” (priority 2002, published 2004)

How the values were obtained:
Edg-2 = target: T1, Edg-2 (Homo sapiens, UniProt Q92633); assay: Intracellular calcium (FLIPR) assay, HTC cells expressing Edg-2; type: cell-based
T1 construct: expressed in transfected cells; host or cells: HTC rat hepatoma cells

Edg-3 = target: T2, Edg-3 (Homo sapiens, UniProt Q99500); assay: Intracellular calcium (FLIPR) assay, HTC cells expressing Edg-3; type: cell-based
T2 construct: expressed in transfected cells; host or cells: HTC rat hepatoma cells
T2 sequence (Q99500 whole entry): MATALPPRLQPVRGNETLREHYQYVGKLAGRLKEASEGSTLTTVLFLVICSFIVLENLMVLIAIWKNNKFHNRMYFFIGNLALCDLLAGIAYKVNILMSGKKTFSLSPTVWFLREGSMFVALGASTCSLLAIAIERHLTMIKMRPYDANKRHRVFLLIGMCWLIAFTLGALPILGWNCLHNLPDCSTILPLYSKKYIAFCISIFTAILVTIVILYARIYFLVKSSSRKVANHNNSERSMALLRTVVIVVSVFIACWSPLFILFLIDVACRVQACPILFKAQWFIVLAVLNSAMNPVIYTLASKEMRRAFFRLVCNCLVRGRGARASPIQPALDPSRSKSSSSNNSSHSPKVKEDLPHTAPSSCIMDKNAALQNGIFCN

Edg-4 = Edg-4 (Homo sapiens, UniProt Q9HBW0); assay: Intracellular calcium (FLIPR) assay, HTC cells expressing Edg-4; type: cell-based
Sequence of Edg-4 (Q9HBW0 1-340 limits assumed): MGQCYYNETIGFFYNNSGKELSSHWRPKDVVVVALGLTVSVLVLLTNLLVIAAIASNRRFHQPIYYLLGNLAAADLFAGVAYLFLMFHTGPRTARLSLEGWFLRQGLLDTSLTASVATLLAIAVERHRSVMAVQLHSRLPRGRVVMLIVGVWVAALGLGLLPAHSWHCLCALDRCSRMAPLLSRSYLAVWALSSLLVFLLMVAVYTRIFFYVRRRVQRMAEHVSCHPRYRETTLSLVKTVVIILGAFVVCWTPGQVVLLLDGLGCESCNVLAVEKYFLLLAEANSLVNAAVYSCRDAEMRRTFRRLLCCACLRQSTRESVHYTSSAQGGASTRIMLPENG

Edg-5 = target: T3, Edg-5 (Homo sapiens, UniProt O95136); assay: Intracellular calcium (FLIPR) assay, HTC cells expressing Edg-5; type: cell-based
T3 construct: expressed in transfected cells; host or cells: HTC rat hepatoma cells
T3 sequence (O95136 whole entry): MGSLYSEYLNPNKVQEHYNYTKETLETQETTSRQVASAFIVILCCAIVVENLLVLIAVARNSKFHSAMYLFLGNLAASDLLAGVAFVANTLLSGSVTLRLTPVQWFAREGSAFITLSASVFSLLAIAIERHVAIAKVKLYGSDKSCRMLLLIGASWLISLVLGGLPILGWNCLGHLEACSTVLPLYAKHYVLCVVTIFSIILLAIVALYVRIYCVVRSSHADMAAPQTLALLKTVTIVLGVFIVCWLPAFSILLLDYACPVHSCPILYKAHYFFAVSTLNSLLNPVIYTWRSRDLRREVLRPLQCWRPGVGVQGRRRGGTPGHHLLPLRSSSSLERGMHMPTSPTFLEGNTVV

Edg-6 = target: T4, Edg-6 (Homo sapiens, UniProt O95977); assay: Intracellular calcium (FLIPR) assay, HTC cells expressing Edg-6; type: cell-based
T4 construct: expressed in transfected cells; host or cells: HTC rat hepatoma cells
T4 sequence (O95977 1-384): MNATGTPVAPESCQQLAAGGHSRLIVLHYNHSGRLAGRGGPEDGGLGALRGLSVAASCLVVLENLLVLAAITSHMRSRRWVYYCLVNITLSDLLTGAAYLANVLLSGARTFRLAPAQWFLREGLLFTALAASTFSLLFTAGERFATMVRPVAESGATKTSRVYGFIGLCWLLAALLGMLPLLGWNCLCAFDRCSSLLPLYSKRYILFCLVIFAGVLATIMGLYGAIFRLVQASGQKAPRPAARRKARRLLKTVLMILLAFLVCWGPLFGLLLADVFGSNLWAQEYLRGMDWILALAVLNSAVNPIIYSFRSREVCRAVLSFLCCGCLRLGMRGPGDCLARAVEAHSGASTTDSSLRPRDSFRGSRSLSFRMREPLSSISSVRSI

Edg-7 = target: T5, Edg-7 (Homo sapiens, UniProt Q9UBY5); assay: Intracellular calcium (FLIPR) assay, HTC cells expressing Edg-7; type: cell-based
T5 construct: expressed in transfected cells; host or cells: HTC rat hepatoma cells
T5 sequence (Q9UBY5 1-353): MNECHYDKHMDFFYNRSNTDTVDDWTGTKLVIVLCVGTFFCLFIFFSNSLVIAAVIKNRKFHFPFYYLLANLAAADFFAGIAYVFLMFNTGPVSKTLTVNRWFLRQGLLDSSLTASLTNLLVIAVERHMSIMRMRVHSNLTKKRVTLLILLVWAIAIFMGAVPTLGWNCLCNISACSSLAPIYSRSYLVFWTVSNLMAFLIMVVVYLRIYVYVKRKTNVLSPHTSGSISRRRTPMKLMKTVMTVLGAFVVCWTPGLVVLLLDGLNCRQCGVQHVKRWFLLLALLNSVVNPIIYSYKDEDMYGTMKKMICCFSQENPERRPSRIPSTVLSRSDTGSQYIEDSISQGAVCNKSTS

Edg-8 = target: T6, Edg-8 (Homo sapiens, UniProt Q9H228); assay: Intracellular calcium (FLIPR) assay, HTC cells expressing Edg-8; type: cell-based
T6 construct: expressed in transfected cells; host or cells: HTC rat hepatoma cells
T6 sequence (Q9H228 whole entry): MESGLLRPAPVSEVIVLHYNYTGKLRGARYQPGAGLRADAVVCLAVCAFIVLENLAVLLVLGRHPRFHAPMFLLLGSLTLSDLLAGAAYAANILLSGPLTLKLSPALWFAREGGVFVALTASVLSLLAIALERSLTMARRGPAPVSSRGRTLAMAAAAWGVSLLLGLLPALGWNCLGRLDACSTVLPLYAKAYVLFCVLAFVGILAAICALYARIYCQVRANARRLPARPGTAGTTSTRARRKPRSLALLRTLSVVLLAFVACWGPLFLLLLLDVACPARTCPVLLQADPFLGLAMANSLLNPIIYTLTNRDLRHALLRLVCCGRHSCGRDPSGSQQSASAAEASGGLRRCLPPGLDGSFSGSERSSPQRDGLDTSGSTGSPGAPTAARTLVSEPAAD

[1] = system: human umbilical vein endothelial cells; assay: Trans-matrigel chemotaxis / invasion assay with HUVECs (modified Boyden chamber); type: cell-based
Protocol: In addition to Edg-1, other Edg receptors are also implicated in S1P stimulated chemotaxis, including Edg-3 and Edg-6. To assess the relative roles of the Edg-1 receptors and Edg-3 receptors in S1P stimulated chemotaxis, the ability of S1P to evoke trans-matrigel chemotaxis was tested in the presence of the Edg-1 antagonist 101, the Edg-3 antagonist 301, and the combination of 101 and 301. These experiments were performed according to the migration and invasion assay protocols described in Section 7.12, below. The Edg-3 antagonist 301, 3-Methyl-2-phenyl-quinoline-4-carboxylic acid 4-fluoro-benzylamide, is extensively described in co-pending U.S. application Ser. No. 10/390,426, which is incorporated by reference in its entirety. 301 is identified as compound 101 in U.S. application Ser. No. 10/390,426. Further, 301 is commercially available from Specs (The Netherlands) as compound number AK-968/12971392.
S1P is a strong chemoattractant to human PBMCs. […] Several migration assays were performed to test this hypothesis and to determine the effect of Edg-1 agonists and antagonists on S1P mediated chemotaxis. The migration assays were performed according to the protocol described in Section 7.12, below. The results of theses assays are presented in FIG. 6, FIG. 7, FIG. 8, FIG. 9 and FIG. 13.
(§1) Cells were plated in a 24 well format using Fluoroblok filter insert plates ([…] pore size) or Fluoroblok matrigel coated filter insert plates (Becton Dickinson, San Diego, Calif.). The assay was a modified Boyden Chamber assay in which a cell suspension (1×10^5 cells/ml) was prepared in serum free medium and added to the top chamber. LPA or S1P (doses ranged from 0.1-10 μM in serum free medium) was added to the bottom chamber. Following a 20-24 hour incubation period, the number of cells migrating or invading into the lower chamber was quantitated by transferring the filter insert into a fresh 24-well plate containing 4 μg/ml calcein AM (Molecular Probes, Sunnyvale, Calif.) in Hank's Balanced Salt Solution and staining for one hour.
(§2) Detection was via fluorescent readout at 450 nm excitation/530 nm emission using a fluorimeter. The level of fluorescence correlated with cell number.

murine CD4 T cells = assay: Murine CD4 T cell chemotactic response to exodus-2; type: cell-based
Protocol: To assess this modulation and to test the effects of Edg-1 agonists and antagonists on this effect, murine CD4 T cells chemotactic responses to exodus-2 were tested in the presence of S1P and the Edg-1 agonist 104. These experiments were performed according to the migration and invasion assay protocols described in Section 7.12, below.
The effects of Edg-1 antagonists on S1P regulation of the chemotactic response to exodus-2 were also assessed. This experiment was performed according to the migration and invasion assay protocols described in Section 7.12, below. […] Thus, these Edg-1 antagonists can antagonize both aspects of the regulation by S1P of exodus-2-mediated chemotaxis.
as §1, §2

[2] = system: mouse splenic CD4 T cells; assay: Lymphocyte migration in mouse dorsal air-pouch model; type: in vivo; details: lavage after 24 hours, FIG. 15
Protocol: To test migration of mouse T cells in vivo, the ability of exodus-2 to attract mouse lymphocytes was assessed in the mouse dorsal air-pouch model. In these experiments, 0.5 ml 1 μM exodus-2 was introduced into a dorsal air-pouch produced by injecting 5 ml of filtered air subcutaneously. Mouse splenic CD4 T cells were fluorescently labeled with FM-DiI (Molecular Probes, Inc., Eugene, Oreg.), then treated with S1P (1 μM), 102, or 104. The treated CD4T cells were introduced into the peritoneal cavity. After 24 hours, lavage (1 ml) from the dorsal air pouch was assayed for fluorescence.

[3] = concentrations as high as 20 μM
[4] = agonist, concentrations as high as 25 μM

T1 sequence (Q92633 whole entry): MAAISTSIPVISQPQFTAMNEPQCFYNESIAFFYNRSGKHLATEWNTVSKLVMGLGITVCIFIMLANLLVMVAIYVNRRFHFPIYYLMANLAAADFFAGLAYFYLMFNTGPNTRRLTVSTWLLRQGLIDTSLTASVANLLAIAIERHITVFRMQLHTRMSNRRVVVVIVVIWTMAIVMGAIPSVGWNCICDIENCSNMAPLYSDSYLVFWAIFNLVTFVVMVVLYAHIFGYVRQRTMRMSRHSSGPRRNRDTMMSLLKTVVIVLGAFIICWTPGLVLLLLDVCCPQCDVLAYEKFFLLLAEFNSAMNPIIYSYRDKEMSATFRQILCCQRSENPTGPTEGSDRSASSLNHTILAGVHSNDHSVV

In the case of `O=C(c1cccnc1)N1N=C(c2ccc(Br)cc2)CC1(O)C(F)(F)F` (stereo not shown) [Compound 102], the IC50 (Edg-2; Table 2, LPA-stimulated) is reported as greater than 20 µM, the “inhibition of LPA-stimulated calcium increases in HTC cells expressing Edg-2” value (Edg-2; [3]) is reported as “did not inhibit” and the IC50 (Edg-3; Table 2, S1P-stimulated) is reported as greater than 20 µM. The “inhibition of S1P-stimulated calcium increases in HTC cells expressing Edg-3” value (Edg-3; [3]) was “did not inhibit”, the IC50 (Edg-4; Table 2, LPA-stimulated) was greater than 20 µM and the “inhibition of LPA-stimulated calcium increases in HTC cells expressing Edg-4” value (Edg-4; [3]) was “did not inhibit”. The IC50 (Edg-5; Table 2, S1P-stimulated) was greater than 20 µM, the “inhibition of S1P-stimulated calcium increases in HTC cells expressing Edg-5” value (Edg-5; [3]) was “did not inhibit” and the IC50 (Edg-6; Table 2, S1P-stimulated) was greater than 20 µM. For the same compound, the “inhibition of S1P-stimulated calcium increases in HTC cells expressing Edg-6” value (Edg-6; [3]) was “did not inhibit”, the IC50 (Edg-7; Table 2, LPA-stimulated) was greater than 20 µM and the “inhibition of LPA-stimulated calcium increases in HTC cells expressing Edg-7” value (Edg-7; [3]) was “did not inhibit”. For the same compound, the IC50 (Edg-8; Table 2, S1P-stimulated) was greater than 20 µM, the “inhibition of S1P-stimulated calcium increases in HTC cells expressing Edg-8” value (Edg-8; [3]) was “did not inhibit” and the “inhibition of S1P-induced matrigel invasion” value ([1]; HUVEC, 10 μM (FIG. 6)) was “inhibits S1P-induced matrigel invasion”. The “effect on S1P-mediated desensitization of the chemotactic response to exodus-2” value (murine CD4 T cells; high concentrations of S1P, FIG. 12) was “reverse S1P-mediated desensitization”, the “effect on S1P-mediated stimulation of the chemotactic response to exodus-2” value (murine CD4 T cells; moderate concentrations of S1P, FIG. 12) was “inhibit S1P-mediated stimulation” and the “reversal of S1P-mediated desensitization in dorsal air-pouch” value ([2]; co-treatment with S1P) was “can be reversed”.
In the case of `COc1cc(C(=O)c2cc(Cl)ccc2N)cc(OC)c1OC` [Compound 104, (2-Amino-5-chlorophenyl)-(3,4,5-trimethoxyphenyl)methanone], the EC50 (Edg-2; agonist) is reported as greater than 25 µM, the “calcium response in HTC cells expressing Edg-2” value (Edg-2; [4]) is reported as “did not elicit a calcium response” and the EC50 (Edg-3; agonist) is reported as greater than 25 µM. The “calcium response in HTC cells expressing Edg-3” value (Edg-3; [4]) was “did not elicit a calcium response”, the EC50 (Edg-4; agonist) was greater than 25 µM and the “calcium response in HTC cells expressing Edg-4” value (Edg-4; [4]) was “did not elicit a calcium response”. For the same compound, the EC50 (Edg-5; agonist) was greater than 25 µM, the “calcium response in HTC cells expressing Edg-5” value (Edg-5; [4]) was “did not elicit a calcium response” and the EC50 (Edg-6; agonist) was greater than 25 µM. The “calcium response in HTC cells expressing Edg-6” value (Edg-6; [4]) was “did not elicit a calcium response”, the EC50 (Edg-7; agonist) was greater than 25 µM and the “calcium response in HTC cells expressing Edg-7” value (Edg-7; [4]) was “did not elicit a calcium response”. For the same compound, the EC50 (Edg-8; agonist) was greater than 25 µM, the “calcium response in HTC cells expressing Edg-8” value (Edg-8; [4]) was “did not elicit a calcium response” and the “potency of invasion stimulation relative to S1P” value ([1]; HUVEC, FIG. 7) was “significantly less potent that S1P”. The “stimulation of invasion of Human Umbilical Vein Endothelial cells” value ([1]; concentrations between 0.5-100 μM, FIG. 7) was “stimulates invasion”, the “concentration needed relative to S1P for same effect on chemotactic response to exodus-2” value (murine CD4 T cells; FIG. 11) was “higher concentrations of 104 than S1P are required” and the “effect on chemotaxis of murine CD4 T cells to exodus-2” value (murine CD4 T cells; low and high concentrations desensitize, moderate stimulate, FIG. 11) was “bell-shaped dose dependant response curve”. For the same compound, the “migration of treated lymphocytes to exodus-2 in dorsal air-pouch” value ([2]; CD4 T cells treated ex vivo, given intraperitoneally, S1P 1 μM) was “desensitizes the lymphocytes to attraction by exodus-2”.
